MIC and IC50 data for ten molecules are collected here from ChEMBL document CHEMBL4196246, “Preussins with Inhibition of IL-6 Expression from Aspergillus flocculosus 16D-1, a Fungus Isolated from the Marine Sponge Phakellia fusca” (J Nat Prod, 2018).

Molecules are shown by their SMILES. pIC50: −log10 of the molar value.

In assay [1] the test system is Trichophyton mentagrophytes. As to the kind of experiment: Antifungal activity against Trichophyton mentagrophytes ATCC 4439 by broth macrodilution method. Format: functional.
Assay [2] relates to THP-1. Kind of assay: Immunosuppressive activity in PMA-differentiated human THP1 cells assessed as inhibition of LPS-stimulated IL-6 production by flow cytometry. Format: functional, cell-based.
In the next assay the test system is Trichophyton rubrum. Kind of assay: Antifungal activity against Trichophyton rubrum ATCC 4438 measured after 4 to 7 days by broth macrodilution method. Format: functional.
For assay [3], the system named is THP-1. Kind of assay: Cytotoxicity against human THP1 cells after 72 hrs by CCK8 assay. Format: functional, cell-based. The settings on record: THP-1, 72 h. A general note: Formazan colour is commonly taken as a measure of viable cells.
In another assay the test system is Candida albicans. As to the kind of experiment: Antifungal activity against Monilia albicans ATCC 10231 measured after 24 hrs by broth macrodilution method. The format is functional. The settings on record: ATCC 10231, 24 h.
A further assay deals with HepG2. As to the kind of experiment: Cytotoxicity against human HepG2 cells after 72 hrs by CCK8 assay. The settings on record: HepG2, 72 h. The format is functional, cell-based.
In a further assay the test system is A549. As to the kind of experiment: Cytotoxicity against human A549 cells after 72 hrs by CCK8 assay. Format: functional, cell-based. As to conditions: A549, 72 h.

Consider `CN1[C@H](CCCCC(=O)O)C[C@H](O)[C@@H]1Cc1ccccc1`, for which the minimum inhibitory concentration (MIC) (in assay [1]; against Trichophyton rubrum; against Candida albicans) was greater than 50 µg/mL in each case. Further, the pIC50 – broadly, the IC50 on a negative log10 scale, so that one unit is a factor of ten – in the assay with THP-1 [2] is 4.66; in the assay with THP-1 [3], less than 4.70; in the assay on HepG2, less than 4.70; in the assay with A549 it was less than 4.70.

In the case of `CN1[C@H](CCCCCCC(=O)O)C[C@H](O)[C@@H]1Cc1ccccc1`, the MIC (in assay [1]; in the assay with Trichophyton rubrum; against Candida albicans) was greater than 50 µg/mL in each case. Besides, the pIC50 is 5.00 with THP-1 [2], less than 4.70 in the assay with THP-1 [3], less than 4.70 in the assay on HepG2 and less than 4.70 with A549.

As for `C[C@@H](O)CCCCCCC[C@@H]1C[C@H](O)[C@H](Cc2ccccc2)N1C`, the MIC (in assay [1]; in the assay on Trichophyton rubrum; in the assay with Candida albicans) was greater than 50 µg/mL throughout. In addition, the pIC50 in the assay with THP-1 [2] was 4.85; in the assay on THP-1 [3] it was less than 4.70; in the assay on HepG2, less than 4.70; with A549, less than 4.70.

Regarding `CC[C@@H](O)CCCCCC[C@@H]1C[C@H](O)[C@H](Cc2ccccc2)N1C`, the minimum inhibitory concentration (MIC) (in assay [1]; against Trichophyton rubrum; in the assay on Candida albicans) was greater than 50 µg/mL each time. The pIC50 with THP-1 [2] is 6.72; in the assay on THP-1 [3], less than 4.70; in the assay with HepG2, less than 4.70; in the assay with A549, less than 4.70.

Regarding `CC(C)=CCC/C(C)=C/Cc1cc(-c2coc3cc(O)ccc3c2=O)ccc1O`, the negative-log IC50 (pIC50) in the assay with THP-1 [2] is 6.17.

On to `CC(O)CCCCC[C@@H]1C[C@H](O)[C@H](Cc2ccccc2)N1C` (mixture of isomers), for which the minimal inhibitory concentration (MIC) (in assay [1]; against Trichophyton rubrum; against Candida albicans) was greater than 50 µg/mL in each case. Besides, the pIC50 in the assay on THP-1 [2] was 5.64; in the assay on THP-1 [3], less than 4.70; in the assay with HepG2, less than 4.70; in the assay with A549, less than 4.70.

For `CN1[C@H](CCCCCCCCC(=O)O)C[C@H](O)[C@@H]1Cc1ccccc1`, the MIC (in assay [1]; in the assay with Trichophyton rubrum; with Candida albicans) was greater than 50 µg/mL throughout. The pIC50 in the assay on THP-1 [2] was 6.96; in the assay with THP-1 [3], less than 4.70; in the assay with HepG2 it was less than 4.70; in the assay with A549, less than 4.70.

Take `CCCC(O)CCCCC[C@@H]1C[C@H](O)[C@H](Cc2ccccc2)N1C` (mixture of isomers): the MIC (in assay [1]; with Trichophyton rubrum; with Candida albicans) was greater than 50 µg/mL each time. The pIC50 in the assay with THP-1 [2] is 4.80; in the assay on THP-1 [3], less than 4.70; in the assay with HepG2, less than 4.70; in the assay on A549, less than 4.70.

With `CN1[C@H](CCC(=O)O)C[C@H](O)[C@@H]1Cc1ccccc1`, the MIC (in assay [1]; against Trichophyton rubrum; against Candida albicans) was greater than 50 µg/mL throughout. Moreover, the pIC50 in the assay with THP-1 [2] is 4.68; in the assay with THP-1 [3] it was less than 4.70; with HepG2 it was less than 4.70; in the assay with A549, less than 4.70.

With `CN1[C@H](CCCCCC(=O)O)C[C@H](O)[C@@H]1Cc1ccccc1`, the MIC (in assay [1]; with Trichophyton rubrum; with Candida albicans) was greater than 50 µg/mL in each case. Also, the pIC50 in the assay on THP-1 [2] is 5.09; in the assay with THP-1 [3] it was less than 4.70; in the assay on HepG2, less than 4.70; with A549 it was less than 4.70.
